Test results published in patent publication US10308682B2, “Inhibition of tumor growth with aggregates of small molecules” (BRANDEIS UNIVERSITY, priority 2013, dated 2019).

Experiments:
[1] = Thioflavin T fluorescence quantification of aggregates of 1; type: physicochemical; conditions: ThT emission, PBS buffer
T98G cells = assay: Tubulin staining (tubulin tracker), T98G cells; type: cell-based; conditions: 400 μM, 24 h
tubulin heterodimers = target: T1, tubulin heterodimers (Sus scrofa, UniProt P02550+P02554); assay: In vitro tubulin polymerization assay; type: biochemical
T1 construct: purchased Cytoskeleton
Source text: Tubulin polymerization assay in the presence of 1. In vitro tubulin polymerization reactions in (a) as prepared or (c) filtered reaction cocktail without 1 (control) or with different concentrations of 1. The amount of microtubule is in proportion to optical density at 340 nm. The calculated polymerization rate (Vmax) and the final tubulin polymer mass vs concentrations of 1 from tubulin polymerization in (b) as prepared or (d) filtered reaction cocktail. Negative stained TEM images of molecular aggregates of 1 binding with tubulin. Buffer (control) or 1 (final concentration at 200 to 500 μM) was introduced into reaction cocktail containing fully assembled microtubule (after 60 min of polymerization). The amount of microtubule remain unchanged after 30 min. (e) Molecular aggregates of 1 (400 μM) incubated with tubulins heterodimers in general tubulin buffer. Scale bar=40 nm. White arrows point at tubulin clusters on the molecular aggregates of 1. Confocal images of tubulin stained HeLa and other cell lines. (f) Time dependent cytotoxicity of 1 towards HeLa cells. Data are presented as mean±SD of three independent experiments. Tubulin staining of HeLa cells treated with as-prepared medium containing (g) 0 μM, (h) 200 μM, (i) 300 μM and (j) 400 μM of 1, and filtered medium (k) containing 400 μM of 1 for 24 h. Insets are 3× enlarged images. T98G (l, m) and PC12 (n, o) were also treated with as-prepared medium containing 0 or 400 μM of 1 for 24 h for tubulin staining DNA was counterstained blue by DAPI. Scale bar=10 μm. See also FIG. 12.
As the major function of tubulin is to polymerize into microtubule, we carried out in vitro tubulin polymerization assay to evaluate how the molecular aggregates of 1 affect the polymerization of tubulin. We incubated tubulin heterodimers (i.e., the α- and β-tubulin heterodimer, existing almost exclusively in heterodimer form in cytoplasm) with 1 at different concentrations and monitored the formation of microtubule (FIG. 5). […] At 300 μM of 1, the polymerization curve starts to deviate slightly from the control curve. […] To confirm that the molecular aggregates of 1, but not monomeric 1, inhibit the formation of microtubules, we filtrated of the reaction mixture by a 0.22 μm PVDF filter before the addition of tubulins. […] However, filtrated reaction mixtures containing 200 to 500 μM of 1 has similar polymerization curve to that of control.

HeLa cells [2] = assay: Flow cytometry cell-cycle analysis of HeLa cells; type: cell-based; conditions: 400 μM, 24 h
Experimental: FIG. 3 depicts the response of cancer cells toward molecular aggregates of 1. (a) Intracellular concentration of 1 in HeLa cells treated with 1 for 12 h at different temperatures measure by LC-MS (left bar=37° C.; right bar=4° C.). (b) Confocal images of FITC annexin V and PI stained HeLa cells without incubation with 1 (live cells), HeLa cells treated with 400 μM of 1 for 36 h, and necrotic HeLa cells (induced by DMSO). Scale bar=20 μm. (c) Fluorescence emission of 7-AAD and 1 in cell lysate (15,000 cell/mL) at λex=488 nm. (d) Cell cycle analysis, by flow cytometry, of HeLa cells treated with 0, 300 or 400 μM of 1 for 24 h. Depletion of G2/M phase occurs in cells treated with 400 μM of 1. (e) Cell migration assay of HeLa cells treated with 0, 300, 400 or 500 μM of 1. The gaps were created on the HeLa cells of 100% confluence in 24 well plates, and measured after incubation for 18 h.
Because apoptosis associates with cell cycle, we examined the effect of the aggregates of 1 on the cell cycle. […] The cell-cycle distribution of the HeLa cells incubated with 400 μM of 1 indicates significant decrease of the peaks of S phase and G2/M phase. […] The slight right shift of the whole spectra results from the overlapping of emission of 7-AAD and 1 (FIG. 3c). But such shift barely hampers the distribution of cell-cycle of the spectra. The aggregates of 1 also delay the migration of the HeLa cells.

HeLa cells [3] = assay: Degradation of 1 in HeLa cells (LC-MS); type: in vitro ADME; conditions: 12 h at 37° C.
Experimental: FIG. 17 depicts the degradation of 1 in HeLa cells. HeLa cells were lysed after incubation with 1 at different concentrations for 12 h at 37° C. The fragmental residue of 1 detected and quantified by LC-MS was (S)-2-(2-(naphthalen-2-yl) acetamido)-3-phenylpropanoic acid.

actin = target: T2, actin (Homo sapiens, UniProt P60709); assay: Hydrogel based protein pull-down assay, actin; type: binding; conditions: hydrogel 10 mM, HeLa cell lysate, Western blot
T2 construct: snap freeze and thaw for 3 cycles to lyse the cells; endogenous in cells; host or cells: HeLa cell lysate
Experimental: 4×10^7 of HeLa cells were scrapped from petri dish and washed with PBS buffer for 3 times then centrifuged at 300 g for 5 minutes. The collected cell pellet was mixed with phosphate buffer (100 mM) then snap freeze and thaw for 3 cycles to lyse the cells. The cell lysate was clarified by centrifugation at 12,000 g for 20 min at 4° C. to remove the whole cells, nuclei and large mitochondria. 50 μL of the supernatant lysate was gently mixed with 30 μL hydrogel of 1 (10 mM in PBS buffer, pH 7.6) on rotator at RT for 30 min. The hydrogel was collected by centrifugation (12,000 g, 5 min, 4° C.) and the supernatant was collected and placed on ice before analysis. The hydrogel was washed three times by gently mixing with 50 μL of the washing buffer (50 mM phosphate buffer pH 7.6 supplemented with 150 mM NaCl) on rotator at RT for 10 min followed by separation on centrifuge (12,000 g, 5 min, 4° C.). Supernatants were collected and placed on ice before analysis. Finally, the remaining hydrogel was dissolved using 1:1 washing buffer and 5× Laemeli buffer. All other samples were mixed with 5× Laemeli buffer (final concentration 2×) before SDS-PAGE.
That 1 enters the cells to affect cell cycle, cell migration, and eventually cell viability implies the interactions between the aggregates of 1 and certain intracellular proteins. […]

T1 sequence (P02550 whole entry): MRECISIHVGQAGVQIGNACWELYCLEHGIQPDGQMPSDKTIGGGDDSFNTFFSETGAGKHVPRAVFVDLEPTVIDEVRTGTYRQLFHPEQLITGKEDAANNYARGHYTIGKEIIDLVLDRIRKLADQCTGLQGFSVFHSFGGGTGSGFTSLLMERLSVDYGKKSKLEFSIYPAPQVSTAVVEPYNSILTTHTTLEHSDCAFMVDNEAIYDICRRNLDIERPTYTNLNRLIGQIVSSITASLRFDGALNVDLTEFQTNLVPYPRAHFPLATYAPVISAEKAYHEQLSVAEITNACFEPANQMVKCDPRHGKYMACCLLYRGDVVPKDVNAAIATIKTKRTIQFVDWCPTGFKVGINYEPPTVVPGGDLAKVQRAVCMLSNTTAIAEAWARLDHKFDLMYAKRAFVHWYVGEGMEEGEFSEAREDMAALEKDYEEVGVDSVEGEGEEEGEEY
T1 sequence (P02554 whole entry): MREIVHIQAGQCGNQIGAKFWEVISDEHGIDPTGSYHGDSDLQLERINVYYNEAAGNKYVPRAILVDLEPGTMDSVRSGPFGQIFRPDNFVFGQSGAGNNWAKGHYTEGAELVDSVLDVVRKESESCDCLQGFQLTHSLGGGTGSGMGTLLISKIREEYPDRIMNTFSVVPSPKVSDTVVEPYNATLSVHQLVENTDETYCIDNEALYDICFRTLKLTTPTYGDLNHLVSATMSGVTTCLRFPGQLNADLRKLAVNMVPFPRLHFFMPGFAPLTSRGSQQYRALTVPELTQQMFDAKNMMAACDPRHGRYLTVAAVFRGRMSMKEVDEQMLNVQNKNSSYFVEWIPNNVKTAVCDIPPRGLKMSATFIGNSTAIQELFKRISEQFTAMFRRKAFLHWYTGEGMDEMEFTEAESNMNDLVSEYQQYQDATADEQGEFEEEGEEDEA

SMILES: O=C(Cc1ccc2ccccc2c1)N[C@@H](Cc1ccccc1)C(=O)N[C@@H](Cc1ccccc1)C(=O)O [Compound 1]
- threshold concentration for the formation of molecular aggregates [1]: 320 to 340 µM
- microtubule morphology (T98G cells): disrupted microtubule network
- polymerization rate (Vmax) (tubulin heterodimers; 200 μM or 300 μM, as prepared): barely inhibits the polymerization of tubulins
- final amount of polymers (microtubule) (tubulin heterodimers; 300 μM, as prepared): slightly decreases the amount of microtubules
- polymerization rate (Vmax) (tubulin heterodimers; 400 or 500 μM, as prepared): drastically decreases the Vmax
- reduction of final amount of polymers (microtubule) (tubulin heterodimers; 400 or 500 μM, as prepared): about 30 % decrease
- Vmax and final amount of polymers after filtration (tubulin heterodimers; 400 or 500 μM, filtered by 0.22 μm PVDF filter): only causes slight decreases in both Vmax and the final amount of polymers of tubulins
- cell-cycle distribution (HeLa cells [2]): arrest the HeLa cells at the G1/G0 phase
- degradation of 1 (HeLa cells [3]): rather fast
- binding of actin to the aggregates of 1 (actin): low binding affinity
